Reference: ChEMBL document CHEMBL4828742, “Discovery of novel thiophene derivatives as potent neuraminidase inhibitors” (Eur J Med Chem, 2021)
Activity calls are given as the source filed them. No cut-off for these calls is given here.

Key:
[1] = Inhibition of Influenza A virus H5N1 neuraminidase; design: species or system H5N1 subtype
[2] = Selectivity index, ratio of CC50 for cytotoxicity against dog MDCK cells to EC50 for antiviral activity against Influenza A virus (A/chicken/Hubei/327/2004(H5N1)) infected in dog MDCK cells; format: toxicity, cell-based; settings: read-out: Ratio CC50/EC50
[3] = tested on: H5N1 subtype; assay: Antiviral activity against Influenza A virus H5N1 (A/chicken/Hubei/327/2004(H5N1)) infected in dog MDCK cells assessed as inhibition of virus replication by plaque reduction assay; format: functional, organism-based
[4] = Cytotoxicity against dog MDCK cells assessed as decrease in cell viability by CCK8 assay; format: cell-based, Canis lupus familiaris
[5] = tested on: A549; assay: Antiviral activity against Influenza A virus H5N1 infected in human A549 cells assessed as inhibition of viral replication by TCID50 assay; format: functional, cell-based; settings: H5N1 subtype
[6] = tested on: H5N1 subtype; assay: Potency index, ratio of oseltamivir carboxylate IC50 to test compound IC50 for inhibition of Influenza A virus H5N1 neuraminidase

SMILES | IC50 [1] [nM] | further results
CCOC(=O)c1c(NC(=O)COc2cccc3ncccc23)sc(C(=O)OC)c1C | 40 | 
CCOC(=O)c1c(NC(=O)COc2cccc(C(C)=O)c2)sc(C(=O)OC)c1C | 4770 | 
CCOC(=O)c1c(NC(=O)COc2cccc(C=O)c2)sc(C(=O)OC)c1C | 5650 | 
CCOC(=O)c1c(NC(=O)COc2cc(Br)ccc2OC)sc(C(=O)OC)c1C | 240 | 
CCOC(=O)c1c(NC(=O)COc2ccc3ncccc3c2)sc(C(=O)OC)c1C | 30 | selectivity ratio [2]: > 500; EC50 [3]: 1590 nM; CC50 [4]: > 800000 nM; Activity [5]: Active; Ratio IC50 [6]: 2
CCOC(=O)c1c(NC(=O)COc2ccc(NC(C)=O)cc2)sc(C(=O)OC)c1C | 50 | 
CCOC(=O)c1c(NC(=O)COc2ccccn2)sc(C(=O)OC)c1C | 960 | 
CCOC(=O)c1c(NC(=O)COc2ccc(C=O)cc2OCC)sc(C(=O)OC)c1C | 70 | 
CCOC(=O)c1c(NC(=O)COc2ccc(C=O)cc2)sc(C(=O)OC)c1C | 8860 | 
CCOC(=O)c1c(NC(=O)COc2ccc(C=O)cc2OC)sc(C(=O)OC)c1C | 4390 | 
